# System: HCT116 cells
# Assay: Cytotoxic activity: tumor cell proliferation assay (Alamar Blue)
# Type: cell-based
# Conditions: Homo sapiens, HCT-116, 72 h with compound, Alamar Blue readout
# Description: The following section describes an assay that can be used to characterize compounds of the invention, e.g., to test for the cytotoxic activity of compounds on cells.
# Human tumor cells, e.g., HCT116 cells, are seeded in a 96-well plate at 3.0×10^3 cells/well and grown in 100 μl of RPMI complete media (Invitrogen Corporation, Grand Island, N.Y., USA) containing 10% fetal bovine serum (Hyclone, Logan, Utah, USA) and 10 mM HEPES and at 37° C. for 16 h in an incubator with 5% CO2. To each well, 50 μl of additional growth media containing 20 μM to 60 nM concentrations of compound with 0.2% DMSO is added. Cells are grown for another 72 h at 37° C. 20 μl of Alamar Blue (Trek Diagnostic Systems, Inc., Cleveland, Ohio, USA) reagent is added to each well and incubated for 4 h at 37° C. Plates are read in a SpectraMax Gemini (Molecular Devices, CA, USA) with 544 nm excitation and 590 nm emission wavelength. IC50 values are determined by linear regression analysis of log drug concentration versus percent inhibition.
row,SMILES,IC50 [nM]
1,"Nc1nc(Nc2ccc(Oc3ccnc(C(F)(F)F)n3)cc2)cc(-c2ccccc2)n1 [Example 338, 6-phenyl-N^4-(4-{[2-(trifluoromethyl)pyrimidin-4-yl]oxy}phenyl)pyrimidine-2,4-diamine]",17
2,"Cc1cc(Oc2ccc(Nc3cc(-c4ccc(N)nc4)nc(N)n3)cc2)ccn1 [Example 336, 6-(6-aminopyridin-3-yl)-N^4-{4-[(2-methylpyridin-4-yl)oxy]phenyl}pyrimidine-2,4-diamine]",6
3,"Nc1nc(Nc2ccc(Oc3ccnc(C(F)(F)F)c3)cc2)cc(-c2cncnc2)n1 [Example 337, N^6-(4-{[2-(trifluoromethyl)pyridin-4-yl]oxy}phenyl)-4,5′-bipyrimidine-2,6-diamine]",135
4,"Nc1ccc(-c2cc(Nc3ccc(Oc4ccnc(C(F)(F)F)n4)cc3)nc(N)n2)cn1 [Example 339, 6-(6-aminopyridin-3-yl)-N^4-(4-{[2-(trifluoromethyl)pyrimidin-4-yl]oxy}phenyl)pyrimidine-2,4-diamine]",3
5,"Cc1cccc(C)c1-c1cc(Nc2ccc(Oc3ccnc(C(F)(F)F)c3)cc2)nc(N)n1 [Example 335, 6-(2,6-dimethylphenyl)-N^4-(4-{[2-(trifluoromethyl)pyridin-4-yl]oxy}phenyl)pyrimidine-2,4-diamine]",62
